Results on one molecule are retold here after PMC8508710, “Biochemical Characterization of 13-Lipoxygenases of Arabidopsis thaliana” (International Journal of Molecular Sciences, 2021).

For this experiment, the system named is pea root LOX. Description: Ex vivo pea root extract LOX activity, oxygen electrode. Format: biochemical, Pisum sativum. The conditions noted are these: 36 µg pea root extract pretreated with 1 mM 12-OPDA. The procedure: To evaluate 12-OPDA as a LOX inhibitor under native conditions, we employed pea roots as a plant LOX source. The reliability was assessed with the criterion that an increase in A234nm and, ideally, oxygen consumption occurred via the injection of plant tissue extract (0.5–2 µg/µL protein in 50 mM Tris-HCl or K-Pi, pH 6.6–8.0) in LeA (tested at 4–100 µM). […] Pea seeds (Pisum sativum “Kleine Rheinländerin”) were placed in darkness for 4 days on moist paper. The emerged roots were cut, frozen in liquid N2, and stored at −80 °C. Frozen tissue (~50 mg/mL) was pulverized in a pre-chilled mortar and immediately ground with 50 mM Tris-HCl, pH 7.2. […]
The immunological detection of 13-LOX was performed, based on. […] After 1 h blocking with blocking solution (1% (w/v) non-fat dry milk in TBST (150 mM NaCl, 50 mM Tris-HCl, pH 7.5, 0.05% tween 20)) and overnight incubation (4 °C) with LOX2 (At3g45140) serum (Agrisera, AS07 258, 1:25,000 in blocking solution), the blot was washed with TBST and incubated (2 h, 25 °C) with horseradish peroxidase-coupled anti-rabbit IgG as second antibody (1:20,000 in blocking solution) for the subsequent luminescence detection of immunodecorated LOX on X-ray films (30 s incubation). […] The mixture was injected in 1.8 mL of 20 µM LeA (in 50 mM Tris-HCl, pH 7.2) and recorded for oxygen consumption.

Regarding `CCC=CCC1C(=O)C=CC1CCCCCCCC(=O)O` (stereo not drawn) [12-OPDA, cis-(+)-12-oxophytodienoic acid], the Inhibition of activity result (20 µM LeA) is on record as “about 43%”. The Oxygen consumption (control 4.6 ± 0.5) stood at 2.0 ± 0.5 nmol/mL/min.
